Test results as given in US20250160329A1, “AGROCHEMICAL ADJUVANTS” (Croda International Pic, priority 2022, published 2025).

System: Botrytis cinerea (ATCC 90479)
Test: Botrytis cinerea hyphal growth inhibition on PDA agar (colony diameter), adjuvant with or without pyraclostrobin
Type: cell-based
Settings: for Fold Change in Growth Inhibition: 48 h, 22° C., relative to pyraclostrobin alone
Excerpt: As a measure of the adjuvant activity in relation to the activity of the fungicide alone (e.g. pyraclostrobin) to B. cinerea a value of percent inhibition (adjuvant and fungicide) divided by percent inhibition (fungicide) can be defined, with higher values desired. A value of 1 would therefore represent equal activity of the adjuvant/fungicide combination to the fungicide alone, whereas a value above 1 would represent higher activity with the adjuvant/fungicide combination than the fungicide alone. The actives of the present invention may have a value greater than 1. Preferably greater than 1.5, most preferably greater than 2.
Percent Inhibition—The percent inhibition will be understood to represent the amount the fungicide and/or adjuvant that inhibits the visible growth of the microorganism after 48 hours incubation at 22° C. relative to vehicle treated controls. This is calculated using the following formula:
[formula] • where: • ØC=diameter of the colony grown on agar supplemented with vehicle (i.e. vehicle treated control), and • ØT=diameter of the colony grown on agar supplemented with fungicide and/or adjuvant formulated in an appropriate vehicle (i.e. solvent such as water C2H5OH, CH3OH, CH3CN, DMSO).
Fold Change—The fold change is a measure of the adjuvant/fungicide combination in inhibiting a microorganism compared to the fungicide alone. This indicates how the adjuvant performs relative to the fungicide alone. This is calculated using the following formula:
INHAF/INHF • where: • INHAF=percent inhibition of fungal growth when treated with fungicide and adjuvant, and • INHF=percent inhibition of fungal growth when treated with fungicide alone.
Botrytis cinerea (ATCC 90479) was cultured on Difco Potato Dextrose Agar (PDA) for 7 days with diurnal UV cycles (12 h UV light and 12 h dark). Spores were harvested in a buffered, sterile saline solution (w/v: 0.9% NaCl with 1% Tween 80) and counted using a haemocytometer. The spore suspension was adjusted to a final concentration of 8.5×10^6 spores/mL to create a standardised inoculum.
To prepare hyphal fragments for adjuvant testing, 8.5×10^4 spores were used to inoculate 10 mL of Difco Potato Dextrose Broth in a 150×25 mm tube. The tube was incubated at 220 RPM, 22° C. for 48 hours.
To create hyphal fragments from the culture, the culture was transferred to a 50 mL plastic conical tube containing approximately 20 sterile 5 mm diameter glass beads and vortexed for 5 min. […]
Fungicides and adjuvants were dissolved in methanol and added to molten PDA (−50° C.) and then the agar was distributed in the wells of 12 well multiwell plates (1 mL/well). […] The plates were incubated at 22° C. for 48 hours and then the colony diameter was measured using a digital caliper. […]

With `O=C1N/C(=C\c2ccccc2)C(=O)N2CCCCC12` (stereo not shown) [DKP (Ia), cyclo(-dhPhe-Pip) diketopiperazine] the “Fold Change in Growth Inhibition” value (adjuvant 32 μg/mL + pyraclostrobin (Pyra) 0.0156 μg/mL) was 3.18, the “Fold Change in Growth Inhibition” value (adjuvant 32 μg/mL + pyraclostrobin (Pyra) 0.0313 μg/mL) was 1.36 and the “Fold Change in Growth Inhibition” value (adjuvant 32 μg/mL + pyraclostrobin (Pyra) 0.0625 μg/mL) was 1.76. For the same compound, the “fungicidal activity against B. cinerea (adjuvant alone)” value (adjuvant alone at […] (so in the source), no fungicide) was “no fungicidal activity”.
